According to paper PMC6814738, “Bacterial MgrB peptide activates chemoreceptor Fpr3 in mouse accessory olfactory system and drives avoidance behaviour” (Nature Communications, 2019):
“Also recorded” adds a separate entry of the source. Peptide text beside a SMILES is read from it. * marks the point of attachment. For = O=C*

Columns and labels:
[1] = tested on: vomeronasal sensory neurons (VSNs); test: VNO whole-mount en face confocal Ca2+ imaging of VSN dendritic knobs (Fig. 4, 5); assay type: cell-based, mouse; set-up: key to Ca2+ response of f-MKKFRW-responsive VSN knobs / Fpeak: normalised to knob resting fluorescence F0 before stimulation; conditions: for Fpeak / Ca2+ response of f-MKKFRW-responsive VSN knobs: Fig. 4h; for Fpeak: mean of individual knobs, n = 103 f-MKKFRW, 21 f-MKKFRWVVL, 68 MKKFRW, 26 f-MGFFIS, 63 PUM; for Ca2+ responses in VSNs, in words: VNE of adult B6 mice, f-MKKFRW 1 µM; for Ca2+ response of f-MKKFRW-responsive VSN knobs: adult B6 mice, mean ± s.d., N = 103 (f-MKKFRW), 21 (f-MKKFRWVVL), 68 (MKKFRW), 26 (f-MGFFIS), 63 (PUM)
Source text: Mice (6–20 week old, either sex) were euthanized by CO2 inhalation according to institutional guidelines. After decapitation, the skin was removed from the skull, the mandible was cut off and the cranium was opened by a sagittal cut, 1–2-mm right-lateral in parallel to the midline. The palate and the right incisor were removed and the hemisected skull was mounted in low-melting agarose (4%). The bony capsule of the VNO was opened with fine forceps and the nonsensory epithelium was stripped off. Tissue and cell debris were gently washed off, and the en face preparation was superfused with physiological S1 solution (120 mM NaCl, 25 mM NaHCO3, 5 mM KCl, 1 mM MgSO4, 1 mM CaCl2, 10 mM glucose, 5 mM BES, pH 7.3) saturated with carbogen (95% O2, 5% CO2).
Loading of the VNE with Rhod-2/AM (5–15 µM, 1 h) was performed in S1 solution under carbogen atmosphere at RT. Images were taken with an upright confocal laser scanning microscope (Leica TCS SP5 II, 20x water immersion objective HCX APO L20x/1.0w) equipped with Ar and He/Ne lasers. GFP was excited at 488 nm, Venus at 514 nm and Rhod-2 at 543 nm. Emission was measured at 490–520 nm (GFP), 520–600 nm (Venus) and 560–680 nm (Rhod-2). To minimise interference between Venus and Rhod-2 fluorescence, images were taken sequentially (sample interval per image, 3–4 s). Peptide stimuli were applied to the VNE surface with a local perfusion system which, when positioned close to the anterior end of the VNO, produced a continuous solution stream from rostral to caudal along the VNO axis. Data analysis was performed with the open source software ImageJ (NIH). Ca^2+ responses of individual dendritic knobs were normalised to the knob resting fluorescence level obtained before stimulation (ratio Fx/F0, Fx = actual fluorescence; F0 = mean fluorescence of 3–5 images before ligand application). Mapping was performed by superimposing Ca^2+ peak images onto images showing intrinsic fluorescence for specific markers.
Predator urine mix was composed of urine from mountain lion, coyote, bobcat, fox and marten (at equal volume ratios), purchased from Predatorpee (USA) and Kieferle (Germany). The fMet peptides were as described above. Stimuli were applied in S2 solution (140 mM NaCl, 5 mM KCl, 10 mM HEPES, 1 mM CaCl2, 1 mM MgCl2, 10 mM glucose, pH 7.3 with NaOH).

Fpr2 = conditions: cited from earlier work
Protocol: (§1) We estimate the fraction of knobs responding to f-MKKFRW as ~0.15%, which is similar to the fraction of cells in the VNE that express Fpr3[30]. Strikingly, the sensitivity and sequence-selectivity profile of these responses was nearly identical to the results that we obtained for heterologously expressed Fpr3. The detection threshold of native VSNs for f-MKKFRW was ≤0.1 µM (Fig. 4f), virtually the same as for Fpr3-expres ...

Fpr1 = conditions: cited from earlier work
Protocol: as §1

mouse Fpr3 = conditions: cited from earlier work
Protocol: We estimate the fraction of knobs responding to f-MKKFRW as ~0.15%, which is similar to the fraction of cells in the VNE that express Fpr3[30]. Strikingly, the sensitivity and sequence-selectivity profile of these responses was nearly identical to the results that we obtained for heterologously expressed Fpr3. The detection threshold of native VSNs for f-MKKFRW was ≤0.1 µM (Fig. 4f), virtually the same as for Fpr3-expres ... || Given the importance of the olfactory system in a variety of behavioural avoidance and defence mechanisms[14],[62],[63], we reasoned that in vivo detection of MgrB peptide may evoke an avoidance reaction in mice. We devised a behavioural assay[14],[60] in order to determine whether direct nasal contact with MgrB peptide evokes unconditioned, innate avoidance (Fig. 8a and Methods). […] (Fig ... || We used custom-made peptides with a length of 6–21 amino acids to screen for agonists. Sequences of fMet peptides were designed according to motifs present at the N-termini of 15,125 specific bacterial proteins as annotated in UniProt. Peptides were chemically synthesised, purified, and verified by mass spectroscopy (MALDI-TOF) by commercial suppliers. Purity of all peptides was >95%. Source, sequence and purity of each peptide are listed in Supplementary Data 1. Lyophilised peptides were routinely dissolved in the Ca^2+ imaging assay buffer C1 (130 mM NaCl, 10 mM HEPES, 5 mM KCl, 2 mM CaCl2, ...

Molecule | fraction of knobs responding ([1]; 1 µM, VNE, B6 mice) | Ca2+ responses in Venus+ (B2m) vs GFP+ (NP2) knobs, in words ([1]; 1 µM, heterozygous NP2∆ or B2m-Venus mice, Fig. 5g, h) | Fpeak [1] | Ca2+ responses in VSNs, in words [1] | Ca2+ response of f-MKKFRW-responsive VSN knobs [1] | detection threshold for evoked Ca2+ responses in VSNs ([1]; native VSNs of adult B6 mice, Rhod-2/AM, Fig. 4f) | activation of Fpr2, in words (Fpr2) | activation of Fpr1, in words (Fpr1) | activation of heterologously expressed Fpr3, in words (mouse Fpr3)
CSCC[C@H](NC=O)C(=O)N[C@@H](CCCCN)C(=O)N[C@@H](CCCCN)C(=O)N[C@@H](Cc1ccccc1)C(=O)N[C@@H](CCCNC(=N)N)C(=O)N[C@@H](Cc1c[nH]c2ccccc12)C(=O)O [f-MKKFRW] (For-MKKFRW-OH) | ~ 0.15% | Responses occurred in Venus+ but not in GFP+ knobs | 0.71 | robust, transient Ca^2+ elevations in a small subset of VSNs | 0.71 ± 0.44 | ≤ 0.1 µM | – | – | –
f-MGFFIS [bacterial signal peptide fragment] | – | – | 0.00 | failed to evoke Ca^2+ responses in VSNs | 0.00 ± 0.00 | – | activates Fpr1 and Fpr2 | activates Fpr1 | not Fpr3; also recorded: failed to activate heterologously expressed Fpr3
